# Reference: the supplement of paper PMC11208160
# Assay: recombinant barcode read abundance after kanamycin selection (control-corrected) (log10(CPM+1)); higher = more efficient recombination; sequences stand for … in AGTGCAGAGAAAATCGGCCAGTTTTCTCTGCCTGCAGTCCGCATGCCGT…AGATTTATGCAGCGGACTGCCTTTCTCCCAAAGTGATAAACCGGACAGTATCATGGACCGGTTTTCCCGGTAATCCGTATTTGCAAGGTTGGTTTCACT; site = the 11-nt target
# Description: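 Pooled E. coli target-specificity screen for the IS621 bridge recombinase. Each library plasmid pairs an 11-nt target (CT core) with a bridge RNA whose target-binding loop (9-nt LTG + 4-nt RTG) is reprogrammed; the rest of the 177-nt WT IS621 bridge RNA scaffold is fixed. The plasmid is co-electroporated with a WT donor plasmid; recombinase is induced with 0.1 mM IPTG and recombinants are selected on kanamycin. Recombinant barcodes are sequenced, converted to CPM, averaged over two biological replicates and corrected by the unselected control CPM. Molecule = full bridge RNA written as DNA: LTG = specificity nt 1-9, RTG = reverse complement of specificity nt 8-11, in the WT scaffold.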
# 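Further: IS621 recombinase and bridge RNA in Escherichia coli cells.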
row,Sequence,recombinant barcode read abundance (log10)
1,ACTGAGTCTTGGGTTCTAACCTGTTGCTT (site ACTGGGTCTAA),0.0903
2,ACTGGACCTTGGGTTCTAACCTGTTGCTT (site ACTGGACCTAA),2.23
3,ACTGGACCTTGGGTTCTAACCTGTTGCTT (site GCTGGACCTAG),0.616
4,ACTGGGGCTTGGGTTCTAACCTGTTGCCA (site ACTGGGGCTTG),0.782
5,ACTGGGGCTTGGGTTCTAACCTGTTGCCA (site TCTGGGGCTAG),0.0799
6,ACTGGTCCTTGGGTTCTAACCTGTTGCAG (site ACTACTCCTCT),0.0961
7,ACTGGTCCTTGGGTTCTAACCTGTTGCAG (site ACTGGTCCTCT),2.59
8,ACTTAGCCTTGGGTTCTAACCTGTTGCAT (site ACTTAGCCTAG),1.48
9,ACTTAGCCTTGGGTTCTAACCTGTTGCAT (site ACTTAGCCTAT),1.27
10,ACTTCGACTTGGGTTCTAACCTGTTGCCT (site AATTCGACTAG),0.0426
11,ACTTCGACTTGGGTTCTAACCTGTTGCCT (site ACTTCGACTAG),0.116
12,ACTTCGACTTGGGTTCTAACCTGTTGCCT (site AGTTCGACTAG),0.461
13,ACTTCGACTTGGGTTCTAACCTGTTGCCT (site ATTTCGACTAG),0.0176
14,ACTTCTTCTTGGGTTCTAACCTGTTGCCT (site ACTTCTACTCG),0.124
15,ACTTCTTCTTGGGTTCTAACCTGTTGCCT (site ACTTCTTCTAG),0.0747
16,ACTTGCTCTTGGGTTCTAACCTGTTGCTT (site ACTAGCTCTAG),0.448
17,ACTTGCTCTTGGGTTCTAACCTGTTGCTT (site ACTTGCTCTAA),0.136
18,ACTTGGACTTGGGTTCTAACCTGTTGCAT (site ACTTGGACTAT),1.79
19,ACTTGGACTTGGGTTCTAACCTGTTGCAT (site ACTTGTACTAT),0.0581
20,ACTTGGCCTTGGGTTCTAACCTGTTGCTG (site ACGTGGCCTCA),0.111
21,ACTTGGCCTTGGGTTCTAACCTGTTGCTG (site ACTTGGCCTCA),0.0699

row,Sequence,recombinant barcode read abundance (log10)
1,ACTTTCCCTTGGGTTCTAACCTGTTGCCT (site ACTTTCCCTAG),0.424
2,ACTTTCCCTTGGGTTCTAACCTGTTGCCT (site GCTTTGCCTAG),0.0175
3,AGAAGCACTTGGGTTCTAACCTGTTGCCA (site AGAAGCACTTG),0.783
4,AGAAGCACTTGGGTTCTAACCTGTTGCCA (site CTGTCTCCTAC),0.00729
5,AGAAGCCCTTGGGTTCTAACCTGTTGCCT (site AAAAGCCCTAG),0.134
6,AGAAGCCCTTGGGTTCTAACCTGTTGCCT (site ACAAGCCCTAG),0.269
7,AGAAGCCCTTGGGTTCTAACCTGTTGCCT (site AGAAGCCCTAG),1.51
8,AGAAGCCCTTGGGTTCTAACCTGTTGCCT (site ATAAGCCCTAG),0.0722
9,AGAAGTCCTTGGGTTCTAACCTGTTGCCG (site AGAAGTCCTCA),0.236
10,AGAAGTCCTTGGGTTCTAACCTGTTGCCG (site AGAAGTCCTCC),0.121
11,AGAAGTCCTTGGGTTCTAACCTGTTGCCG (site AGAAGTCCTCG),0.971
12,AGAAGTCCTTGGGTTCTAACCTGTTGCCG (site AGAAGTCCTCT),0.221
13,AGAATAGCTTGGGTTCTAACCTGTTGCAG (site AGAATAGCTCT),2.13
14,AGAATAGCTTGGGTTCTAACCTGTTGCAG (site AGGATAGCTCA),0.0664
15,AGAATGTCTTGGGTTCTAACCTGTTGCCT (site AGAACGTCTAG),0.0676
16,AGAATGTCTTGGGTTCTAACCTGTTGCCT (site AGAATGTCTAG),1.98
17,AGACCTCCTTGGGTTCTAACCTGTTGCTT (site AGACATCCTAA),0.0481
18,AGACCTCCTTGGGTTCTAACCTGTTGCTT (site AGACCTCCTAA),1.39
19,AGACCTCCTTGGGTTCTAACCTGTTGCTT (site AGACGTCCTAA),0.138
20,AGACCTCCTTGGGTTCTAACCTGTTGCTT (site AGACTTCCTAA),0.0176
